The values below are quoted from earlier work in patent publication US20060014801A1, “Prevention and treatment of cognitive impairment using (R)-(-)-5-methyl-1-nicotynoyl-2-pyrazoline (MNP) and analogs” (The Johns Hopkins University, priority 2002, published 2006).

This data set deals with aged rats. As to conditions: cited from earlier work.

For the compound `CO/N=C(\C(=O)N[C@@H]1C(=O)N2C(C(=O)O)=C(CSc3nc(=O)c(=O)[nH]n3C)CS[C@H]12)c1csc(N)n1` [ceftriaxone], the Cognitive function result is given as “improvements of cognitive function”.
